Experimental data reported in article PMC8160850 (Viruses, 2021).
Values joined by “and” are separate entries in the source; they are usually repeats but may differ in a detail not shown here. Identical values can stand only once. Like-named read-outs stand apart in the source and are kept apart here.

How the values were obtained:
[1] = tested on: MRC5 cells; assay: Cell viability of uninfected cells in the screening; assay type: cell-based; settings: 7 days
[2] = tested on: MRC5 cells; assay type: cell-based
[3] = tested on: MRC5 cells; assay: Intracellular ATP quantification; assay type: cell-based; settings: for Reduction of intracellular ATP levels: 100 μM
[4] = tested on: AD169-GFP; assay: FRA with AD169-GFP in MRC5 cells; assay type: cell-based, human cytomegalovirus (HCMV); settings: MRC5, MOI 0.05 IU/cell, 7 days, n = 6
[5] = tested on: MRC5 cells; assay: MTT cell cytotoxicity assay; assay type: cell-based; settings: for Selectivity index (SI), CC50/ED50: MTT CC50 / FRA ED50 TB4-UL83-EYFP; for Cytotoxicity (in words): MRC5, up to 100 μM, 7 days
[6] = MTT cell cytotoxicity assay; assay type: cell-based; settings: human, uninfected MRC5 cells, MTT, uninfected MRC5, 7 days
[7] = tested on: AD169-GFP26 (UL97 M460I); assay: Virus yield reduction assay (VYRA) with AD169-GFP26; assay type: cell-based, human cytomegalovirus (HCMV); settings: AD169-GFP26 (GCV-resistant), n = 4
[8] = tested on: HCMV TB4-UL83-EYFP; assay type: cell-based, human cytomegalovirus (HCMV); settings: 7 days p.i., MOI 0.03 IU/cell
[9] = tested on: hepatitis C virus (HCV); parameters: method as in earlier work; settings: Huh7-Lunet cells ref 60; cited from earlier work
[10] = tested on: HCMV TB4-UL83-EYFP genome; assay: Analysis of HCMV DNA replication by qPCR in infected MRC5 cells; assay type: cell-based, human cytomegalovirus (HCMV); settings: for Decrease in viral genome copy number: B3 50 μM, MOI 0.01 IU/cell
[11] = tested on: AD169-GFP26 (UL97 M460I); assay: FRA with GCV-resistant AD169-GFP26 in MRC5 cells; assay type: cell-based, human cytomegalovirus (HCMV); settings: MRC5, MOI 0.05 IU/cell, 7 days, n = 6
[12] = tested on: HCMV AD169 gene expression (IE1, ppUL44, pp65, pp28); assay: Analysis of HCMV gene expression by Western blotting in infected MRC5 cells; assay type: cell-based, human cytomegalovirus (HCMV); settings: GCV 16 μM, B3 50 μM; for IE1 expression: 6 and 12 h p.i., AD169 MOI 2 IU/cell; for Expression of ppUL44 and pp65: 48 h p.i.; for pp28 expression: 72 h and 96 h p.i.; for ppUL44 and pp65 levels: up to 24 h p.i.
[13] = tested on: HCMV AD169; assay: Plaque reduction assay (PRA) in HFF cells; assay type: cell-based, human cytomegalovirus (HCMV)
[14] = tested on: AD169-GFP; assay: Virus yield reduction assay (VYRA) with AD169-GFP; assay type: cell-based, human cytomegalovirus (HCMV); settings: n = 4
[15] = tested on: HCMV TB4-UL83-EYFP; assay: Dose-response fluorescence reduction assay; assay type: cell-based, human cytomegalovirus (HCMV); settings: FRA, MRC5, MOI 0.03 IU/cell, 7 days p.i.

| SMILES | ED50 [4] | Selectivity index (SI), CC50/ED50 [5] | Cytotoxicity (in words) ([5]; MTT) | CC50 at 7 days [6] | ED50 [7] | Inhibition of viral replication (YFP fluorescence) ([8]; 10 μM) | ED50 [11] | IE1 expression [12] | Expression of ppUL44 and pp65 [12] | pp28 expression [12] | ppUL44 and pp65 levels [12] | ED50 [13] | ED50 [14] | Reduction of intracellular ATP levels ([3]; 24 h post treatment) | other results |
| --- | --- | --- | --- | --- | --- | --- | --- | --- | --- | --- | --- | --- | --- | --- | --- |
| CCOc1ccccc1[C@H]1C(C#N)=C(SCC(=O)OC)NC(=O)[C@@H]1C#N [A4] | – | – | – | – | – | – | – | – | – | – | – | – | – | – | Cytotoxicity ([1]; 10 μM, uninfected MRC5): caused evident cytotoxicity; Solubility in culture medium (precipitates) [2]: not soluble |
| OC[C@@H](O)Cn1c(Cc2cccc3ccccc23)nc2ccccc21 [B3] | 7.9 µM and 7.9 ± 2.7 µM | > 20 | did not cause evident cytotoxicity up to 100 μM | > 100 µM | 9.8 ± 15.6 µM | inhibited viral replication | 17.6 ± 12.8 µM | neither GCV nor B3 treatment affected IE1 expression | decrease | strongly inhibited | not affected | 7.9 ± 3.5 µM | 5.1 ± 3.3 µM | – | Effect on intracellular ATP levels ([3]; all time points analyzed (24, 72, 144 h)): minimal effects; Effect on protein expression and hepatitis C virus replication [9]: did not affect either protein expression nor hepatitis C virus replication; Decrease in viral genome copy number ([10]; 72 h p.i.): ~ 4 fold; Decrease in viral genome copy number ([10]; 120 h p.i.): 6 fold |
| Cc1ccc(-c2nnc(Nc3ccc(CC(N)=O)cc3)c3ccccc23)cc1S(=O)(=O)NC1CCCCC1 [B6] | – | < 5 | – | ~10 µM | – | inhibited viral replication | – | – | – | – | – | – | – | more than 50% | Reduction of intracellular ATP levels ([3]; 72 h post treatment): ~100%; CC50 ([5]; MTT, uninfected MRC5, 7 days): 10.7 ± 2.3 µM; ED50 [15]: 2.1 ± 0.6 µM |
| O=C(O)C[C@H]1S/C(=N/N=C/c2c(OCc3ccccc3Cl)ccc3ccccc23)NC1=O [C6] | – | – | low cytotoxicity | > 100 µM | – | – | – | – | – | – | – | – | – | more than 30% | Reduction of cell viability ([1]; 100 μM, MTS and CellTiter Glo): ≤ 40%; Inhibition of viral replication (YFP fluorescence) ([8]; 100 μM): impaired viral replication; Cell morphology upon microscopic evaluation [2]: significantly altered |
| Nc1nc(O)c2ncn(COC(CO)CO)c2n1 [GCV, Ganciclovir, reference compound] | 2.3 µM and 2.3 ± 1.9 µM | – | did not cause detectable cytotoxic effects at any concentration tested | > 100 µM | 4.7 ± 4.8 µM | – | 21.7 ± 9.6 µM | neither GCV nor B3 treatment affected IE1 expression | decrease | strongly inhibited | not affected | 1.3 ± 0.9 µM | 0.7 µM and 0.7 ± 0.4 µM | – | Viral genome copy number (in words) ([10]; GCV 16 μM, starting from 72 h p.i.): significantly reduced viral genome copy number |
